Converted amounts (≈) assume the structure as drawn. Where only a bound is given, the exact number is not on record here.

For this experiment, the system named is Mycobacterium tuberculosis. Briefly: Antibacterial activity against Mycobacterium tuberculosis H37Rv ATCC 27294 after 5 days by microdilution method. Particulars: H37Rv ATCC 27294, 120 h. Type of experiment: functional. In general terms: Broth dilution looks for growth in wells or tubes with falling amounts of substance.
On to `COc1ncnc(Cn2cc(C(=O)NCCF)c3ncccc32)c1C`, for which the MIC80 (in general, an inhibitory concentration at the 80% level, which refers to growth in some studies and to a panel of isolates in others) was 1.56 µM (≈ 0.536 µg/mL).
Next, `COc1ncnc(Cn2cc(C(=O)NCCF)c3ncc(Br)cc32)c1C`: 0.781 µM (≈ 0.33 µg/mL).
Next, `COc1cnc2c(C(=O)NCC(F)F)cn(Cc3ncnc(OC)c3C)c2c1`: less than 0.39 µM; `CC(c1c(F)cccc1F)n1cc(C(=O)NCCF)c2ncccc21` (stereo unspecified): 12.5 µM (≈ 4.34 µg/mL).
`COc1ncnc(Cn2cc(C(=O)NC[C@@H](C)O)c3ncc(C)cc32)c1C` yielded an MIC80 of 6.52 µM (≈ 2.41 µg/mL). Against the preceding compound, the MIC80 is about 1.9-fold lower.
Regarding `COc1ncnc(Cn2cc(C(=O)NCCO)c3ncc(C)cc32)c1C` [TBA-7371], the MIC80 is 1.56 µM (≈ 0.554 µg/mL). This MIC80 lies about 4.2-fold lower than the previous one.
